Key:
rice flat sedge = assay: Test Example 3: herbicidal effect by foliage application, Wagner pot (Table 18, symbol E); format: in vivo, rice flat sedge (Cyperus iria); conditions: amount of applied herbicide 320 g/ha
Method in brief: (§1)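 Plants were sown in alluvial soil held under 0.1–0.5 cm standing water and grown 14 days in a greenhouse at 25–30 °C. An emulsifiable formulation, water-diluted to the set dose, was then sprayed onto the foliage, and effects were scored three weeks later using previously defined criteria.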

blackgrass [1] = assay: Test Example 5: herbicidal effect by foliage application, plastic box (Table 20, symbol J); format: in vivo, blackgrass (Alopecurus myosuroides); conditions: foliage application, 320 g/ha, evaluated three weeks after application
Method in brief: (§2)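 Sow seeds spot-wise in sterilized diluvial soil; cover with ~1.5 cm soil. Grow 14 days in greenhouse, 25° C. to 30° C. Spray foliage with emulsion diluted to predetermined amount. Rate effect after 3 weeks.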

redroot pigweed [2] = assay: Test Example 4: herbicidal effect by soil treatment (Table 19, symbol N); format: in vivo, redroot pigweed (Amaranthus retroflexus); conditions: amount of applied herbicide 320 g/ha
Method in brief: (§3)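 Soil-surface application: an emulsion agent diluted with water to the predetermined dose is sprayed uniformly over seeds lying under roughly 1.5 cm of sterilized diluvial soil. Boxes stay in a greenhouse at 25° C. to 30° C. Three weeks later, each species is graded on previously defined criteria.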

barnyard grass [3] = assay: Test Example 3: herbicidal effect by foliage application, Wagner pot (Table 18, symbol H); format: in vivo, barnyard grass (Echinochloa crus-galli); conditions: amount of applied herbicide 320 g/ha
Method in brief: as §1

velvetleaf [4] = assay: Test Example 4: herbicidal effect by soil treatment (Table 19, symbol M); format: in vivo, velvetleaf (Abutilon theophrasti); conditions: amount of applied herbicide 320 g/ha
Method in brief: as §3

chickweed [5] = assay: Test Example 4: herbicidal effect by soil treatment (Table 19, symbol P); format: in vivo, common chickweed (Stellaria media); conditions: amount of applied herbicide 320 g/ha
Method in brief: as §3

redroot pigweed [6] = assay: Test Example 5: herbicidal effect by foliage application, plastic box (Table 20, symbol N); format: in vivo, redroot pigweed (Amaranthus retroflexus); conditions: foliage application, 320 g/ha, evaluated three weeks after application
Method in brief: as §2

wild oat [7] = assay: Test Example 5: herbicidal effect by foliage application, plastic box (Table 20, symbol I); format: in vivo, wild oat (Avena fatua); conditions: foliage application, 320 g/ha, evaluated three weeks after application
Method in brief: as §2

windgrass [8] = assay: Test Example 4: herbicidal effect by soil treatment (Table 19, symbol L); format: in vivo, windgrass (Apera spica-venti); conditions: amount of applied herbicide 320 g/ha
Method in brief: as §3

windgrass [9] = assay: Test Example 5: herbicidal effect by foliage application, plastic box (Table 20, symbol L); format: in vivo, windgrass (Apera spica-venti); conditions: foliage application, 320 g/ha, evaluated three weeks after application
Method in brief: as §2

green foxtail [10] = assay: Test Example 5: herbicidal effect by foliage application, plastic box (Table 20, symbol G); format: in vivo, green foxtail (Setaria viridis); conditions: foliage application, 320 g/ha, evaluated three weeks after application
Method in brief: as §2

persian speedwell [11] = assay: Test Example 5: herbicidal effect by foliage application, plastic box (Table 20, symbol R); format: in vivo, Persian speedwell (Veronica persica); conditions: foliage application, 320 g/ha, evaluated three weeks after application
Method in brief: as §2

chickweed [12] = assay: Test Example 5: herbicidal effect by foliage application, plastic box (Table 20, symbol P); format: in vivo, common chickweed (Stellaria media); conditions: foliage application, 320 g/ha, evaluated three weeks after application
Method in brief: as §2

blackgrass [13] = assay: Test Example 4: herbicidal effect by soil treatment (Table 19, symbol J); format: in vivo, blackgrass (Alopecurus myosuroides); conditions: amount of applied herbicide 320 g/ha
Method in brief: as §3

lambsquarters [14] = assay: Test Example 5: herbicidal effect by foliage application, plastic box (Table 20, symbol O); format: in vivo, lambsquarters (Chenopodium album); conditions: foliage application, 320 g/ha, evaluated three weeks after application
Method in brief: as §2

Chinese sprangletop = assay: Test Example 3: herbicidal effect by foliage application, Wagner pot (Table 18, symbol D); format: in vivo, chinese sprangletop (Leptochloa chinensis); conditions: amount of applied herbicide 320 g/ha
Method in brief: as §1

green foxtail [15] = assay: Test Example 4: herbicidal effect by soil treatment (Table 19, symbol G); format: in vivo, green foxtail (Setaria viridis); conditions: amount of applied herbicide 320 g/ha
Method in brief: as §3

Italian ryegrass [16] = assay: Test Example 5: herbicidal effect by foliage application, plastic box (Table 20, symbol K); format: in vivo, Italian ryegrass (Lolium multiflorum); conditions: foliage application, 320 g/ha, evaluated three weeks after application
Method in brief: as §2

southern crabgrass [17] = assay: Test Example 5: herbicidal effect by foliage application, plastic box (Table 20, symbol F); format: in vivo, southern crabgrass (Digitaria ciliaris); conditions: foliage application, 320 g/ha, evaluated three weeks after application
Method in brief: as §2

barnyard grass [18] = assay: Test Example 4: herbicidal effect by soil treatment (Table 19, symbol H); format: in vivo, barnyard grass (Echinochloa crus-galli); conditions: amount of applied herbicide 320 g/ha
Method in brief: as §3

velvetleaf [19] = assay: Test Example 5: herbicidal effect by foliage application, plastic box (Table 20, symbol M); format: in vivo, velvetleaf (Abutilon theophrasti); conditions: foliage application, 320 g/ha, evaluated three weeks after application
Method in brief: as §2

wild oat [20] = assay: Test Example 4: herbicidal effect by soil treatment (Table 19, symbol I); format: in vivo, wild oat (Avena fatua); conditions: amount of applied herbicide 320 g/ha
Method in brief: as §3

southern crabgrass [21] = assay: Test Example 4: herbicidal effect by soil treatment (Table 19, symbol F); format: in vivo, southern crabgrass (Digitaria ciliaris); conditions: amount of applied herbicide 320 g/ha
Method in brief: as §3

barnyard grass [22] = assay: Test Example 5: herbicidal effect by foliage application, plastic box (Table 20, symbol H); format: in vivo, barnyard grass (Echinochloa crus-galli); conditions: foliage application, 320 g/ha, evaluated three weeks after application
Method in brief: as §2

lambsquarters [23] = assay: Test Example 4: herbicidal effect by soil treatment (Table 19, symbol O); format: in vivo, lambsquarters (Chenopodium album); conditions: amount of applied herbicide 320 g/ha
Method in brief: as §3

Italian ryegrass [24] = assay: Test Example 4: herbicidal effect by soil treatment (Table 19, symbol K); format: in vivo, Italian ryegrass (Lolium multiflorum); conditions: amount of applied herbicide 320 g/ha
Method in brief: as §3

persian speedwell [25] = assay: Test Example 4: herbicidal effect by soil treatment (Table 19, symbol R); format: in vivo, Persian speedwell (Veronica persica); conditions: amount of applied herbicide 320 g/ha
Method in brief: as §3

SMILES: Cc1ccc2sc(-c3ccc4c(c3)OCO4)c(-c3c(O)c(C)nn(C)c3=O)c2c1 [2-156]
- herbicidal effect on E: rice flat sedge (rice flat sedge): 4 (Herbicidal rate of 70% or more and less than 90%)
- herbicidal effect on J: blackgrass (criteria 0-5) (blackgrass [1]): 0 (Herbicidal rate of 5% or less (almost no effect))
- N: redroot pigweed, herbicidal effect rating (redroot pigweed [2]): 2 (Herbicidal rate of 20% or more and less than 40%)
- herbicidal effect on H: barnyard grass (barnyard grass [3]): 3 (Herbicidal rate of 40% or more and less than 70%)
- M: velvetleaf, herbicidal effect rating (velvetleaf [4]): 0 (Herbicidal rate of 5% or less (almost no effect))
- P: chickweed, herbicidal effect rating (chickweed [5]): 4 (Herbicidal rate of 70% or more and less than 90%)
- herbicidal effect on N: redroot pigweed (criteria 0-5) (redroot pigweed [6]): 3 (Herbicidal rate of 40% or more and less than 70%)
- herbicidal effect on I: wild oat (criteria 0-5) (wild oat [7]): 0 (Herbicidal rate of 5% or less (almost no effect))
- L: windgrass, herbicidal effect rating (windgrass [8]): 0 (Herbicidal rate of 5% or less (almost no effect))
- herbicidal effect on L: windgrass (criteria 0-5) (windgrass [9]): 0 (Herbicidal rate of 5% or less (almost no effect))
- herbicidal effect on G: green foxtail (criteria 0-5) (green foxtail [10]): 0 (Herbicidal rate of 5% or less (almost no effect))
- herbicidal effect on R: persian speedwell (criteria 0-5) (persian speedwell [11]): 5 (Herbicidal rate of 90% or more (almost completely withered))
- herbicidal effect on P: chickweed (criteria 0-5) (chickweed [12]): 5 (Herbicidal rate of 90% or more (almost completely withered))
- J: blackgrass, herbicidal effect rating (blackgrass [13]): 0 (Herbicidal rate of 5% or less (almost no effect))
- herbicidal effect on O: lambsquarters (criteria 0-5) (lambsquarters [14]): 0 (Herbicidal rate of 5% or less (almost no effect))
- herbicidal effect on D: Chinese sprangletop (Chinese sprangletop): 0 (Herbicidal rate of 5% or less (almost no effect))
- G: green foxtail, herbicidal effect rating (green foxtail [15]): 0 (Herbicidal rate of 5% or less (almost no effect))
- herbicidal effect on K: Italian ryegrass (criteria 0-5) (Italian ryegrass [16]): 1 (Herbicidal rate of 5% or more and less than 20%)
- herbicidal effect on F: southern crabgrass (criteria 0-5) (southern crabgrass [17]): 0 (Herbicidal rate of 5% or less (almost no effect))
- H: barnyard grass, herbicidal effect rating (barnyard grass [18]): 0 (Herbicidal rate of 5% or less (almost no effect))
- herbicidal effect on M: velvetleaf (criteria 0-5) (velvetleaf [19]): 4 (Herbicidal rate of 70% or more and less than 90%)
- I: wild oat, herbicidal effect rating (wild oat [20]): 0 (Herbicidal rate of 5% or less (almost no effect))
- F: southern crabgrass, herbicidal effect rating (southern crabgrass [21]): 0 (Herbicidal rate of 5% or less (almost no effect))
- herbicidal effect on H: barnyard grass (criteria 0-5) (barnyard grass [22]): 0 (Herbicidal rate of 5% or less (almost no effect))
- O: lambsquarters, herbicidal effect rating (lambsquarters [23]): 3 (Herbicidal rate of 40% or more and less than 70%)
- K: Italian ryegrass, herbicidal effect rating (Italian ryegrass [24]): 0 (Herbicidal rate of 5% or less (almost no effect))
- R: persian speedwell, herbicidal effect rating (persian speedwell [25]): 4 (Herbicidal rate of 70% or more and less than 90%)

SMILES: C#Cc1ccc2sc(-c3ccccc3OC)c(-c3c(O)c(C)nn(C)c3=O)c2c1 [2-187]
- herbicidal effect on E: rice flat sedge (rice flat sedge): 0 (Herbicidal rate of 5% or less (almost no effect))
- herbicidal effect on J: blackgrass (criteria 0-5) (blackgrass [1]): 5 (Herbicidal rate of 90% or more (almost completely withered))
- N: redroot pigweed, herbicidal effect rating (redroot pigweed [2]): 4 (Herbicidal rate of 70% or more and less than 90%)
- herbicidal effect on H: barnyard grass (barnyard grass [3]): 4 (Herbicidal rate of 70% or more and less than 90%)
- M: velvetleaf, herbicidal effect rating (velvetleaf [4]): 2 (Herbicidal rate of 20% or more and less than 40%)
- P: chickweed, herbicidal effect rating (chickweed [5]): 3 (Herbicidal rate of 40% or more and less than 70%)
- herbicidal effect on N: redroot pigweed (criteria 0-5) (redroot pigweed [6]): 5 (Herbicidal rate of 90% or more (almost completely withered))
- herbicidal effect on I: wild oat (criteria 0-5) (wild oat [7]): 0 (Herbicidal rate of 5% or less (almost no effect))
- L: windgrass, herbicidal effect rating (windgrass [8]): 5 (Herbicidal rate of 90% or more (almost completely withered))
- herbicidal effect on L: windgrass (criteria 0-5) (windgrass [9]): 5 (Herbicidal rate of 90% or more (almost completely withered))
- herbicidal effect on G: green foxtail (criteria 0-5) (green foxtail [10]): 3 (Herbicidal rate of 40% or more and less than 70%)
- herbicidal effect on R: persian speedwell (criteria 0-5) (persian speedwell [11]): 5 (Herbicidal rate of 90% or more (almost completely withered))
- herbicidal effect on P: chickweed (criteria 0-5) (chickweed [12]): 5 (Herbicidal rate of 90% or more (almost completely withered))
- J: blackgrass, herbicidal effect rating (blackgrass [13]): 4 (Herbicidal rate of 70% or more and less than 90%)
- herbicidal effect on O: lambsquarters (criteria 0-5) (lambsquarters [14]): 4 (Herbicidal rate of 70% or more and less than 90%)
- herbicidal effect on D: Chinese sprangletop (Chinese sprangletop): 0 (Herbicidal rate of 5% or less (almost no effect))
- G: green foxtail, herbicidal effect rating (green foxtail [15]): 4 (Herbicidal rate of 70% or more and less than 90%)
- herbicidal effect on K: Italian ryegrass (criteria 0-5) (Italian ryegrass [16]): 4 (Herbicidal rate of 70% or more and less than 90%)
- herbicidal effect on F: southern crabgrass (criteria 0-5) (southern crabgrass [17]): 4 (Herbicidal rate of 70% or more and less than 90%)
- H: barnyard grass, herbicidal effect rating (barnyard grass [18]): 3 (Herbicidal rate of 40% or more and less than 70%)
- herbicidal effect on M: velvetleaf (criteria 0-5) (velvetleaf [19]): 5 (Herbicidal rate of 90% or more (almost completely withered))
- I: wild oat, herbicidal effect rating (wild oat [20]): 0 (Herbicidal rate of 5% or less (almost no effect))
- F: southern crabgrass, herbicidal effect rating (southern crabgrass [21]): 1 (Herbicidal rate of 5% or more and less than 20%)
- herbicidal effect on H: barnyard grass (criteria 0-5) (barnyard grass [22]): 1 (Herbicidal rate of 5% or more and less than 20%)
- O: lambsquarters, herbicidal effect rating (lambsquarters [23]): 4 (Herbicidal rate of 70% or more and less than 90%)
- K: Italian ryegrass, herbicidal effect rating (Italian ryegrass [24]): 4 (Herbicidal rate of 70% or more and less than 90%)
- R: persian speedwell, herbicidal effect rating (persian speedwell [25]): 0 (Herbicidal rate of 5% or less (almost no effect))
